The target of assay [1] is T1, PLC-γ1 (Bos taurus, UniProt P08487).
T1 construct: A sample (PLC-γ1) was prepared from bovine thymus according to the method of Y. Homma et al; from tissue; host or cells: bovine thymus
T1 sequence (P08487 1-1291): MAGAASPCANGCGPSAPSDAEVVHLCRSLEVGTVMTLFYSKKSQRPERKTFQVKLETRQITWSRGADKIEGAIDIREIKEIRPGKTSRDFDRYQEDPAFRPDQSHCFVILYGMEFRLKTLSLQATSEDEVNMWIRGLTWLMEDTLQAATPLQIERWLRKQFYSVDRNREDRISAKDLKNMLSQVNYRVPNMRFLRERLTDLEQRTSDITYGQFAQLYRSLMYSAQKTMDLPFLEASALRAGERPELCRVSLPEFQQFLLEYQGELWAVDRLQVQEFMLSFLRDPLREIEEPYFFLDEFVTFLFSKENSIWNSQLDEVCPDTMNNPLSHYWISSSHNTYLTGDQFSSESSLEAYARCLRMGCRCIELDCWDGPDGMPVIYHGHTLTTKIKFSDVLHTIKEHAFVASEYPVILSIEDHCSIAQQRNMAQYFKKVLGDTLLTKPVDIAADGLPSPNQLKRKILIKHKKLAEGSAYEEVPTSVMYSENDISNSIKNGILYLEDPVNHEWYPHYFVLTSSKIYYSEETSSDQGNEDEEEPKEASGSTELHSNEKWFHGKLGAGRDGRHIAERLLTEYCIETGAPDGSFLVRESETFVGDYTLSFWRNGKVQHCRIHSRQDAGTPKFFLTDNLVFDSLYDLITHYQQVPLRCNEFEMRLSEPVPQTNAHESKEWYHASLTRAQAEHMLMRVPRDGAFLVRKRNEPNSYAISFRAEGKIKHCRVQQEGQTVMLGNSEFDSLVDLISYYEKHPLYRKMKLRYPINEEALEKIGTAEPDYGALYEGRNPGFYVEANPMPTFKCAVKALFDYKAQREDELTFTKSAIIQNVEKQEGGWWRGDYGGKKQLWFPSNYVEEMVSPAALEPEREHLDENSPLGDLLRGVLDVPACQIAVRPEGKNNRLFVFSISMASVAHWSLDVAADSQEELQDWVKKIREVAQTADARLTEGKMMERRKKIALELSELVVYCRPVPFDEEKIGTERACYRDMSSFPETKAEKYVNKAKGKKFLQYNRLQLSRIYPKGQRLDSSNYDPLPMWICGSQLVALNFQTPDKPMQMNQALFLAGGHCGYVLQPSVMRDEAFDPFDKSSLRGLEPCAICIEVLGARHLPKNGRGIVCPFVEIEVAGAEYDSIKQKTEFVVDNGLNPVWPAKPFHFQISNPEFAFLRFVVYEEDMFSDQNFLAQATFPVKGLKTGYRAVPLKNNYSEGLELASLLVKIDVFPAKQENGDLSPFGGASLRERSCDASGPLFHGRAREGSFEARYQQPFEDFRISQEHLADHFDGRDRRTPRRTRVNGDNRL
The experiment in a line: PLC-inhibiting activity (release of [3H]inositol phosphate from [3H]PIP2). It counts as biochemical, bovine. The note with it: PI-PLC-γ1, 37° C., 10 minutes. As for the experimental part: A sample (PLC-γ1) was prepared from bovine thymus according to the method of Y. Homma et al. described in Biochemical Journal [(Biochem. J.), 269, 13 (1990)]. A solution having the composition listed in Table 1 below was prepared in advance on the ice and the reaction was begun with heating to 37° C. After incubation for 10 minutes, 2 ml of a solution mixture of chloroform/methanol (2:[…]) was added thereto to stop the reaction. The resulting inositol phosphate was extracted with 0.5 ml of 1N hydrochloric acid. Two-phase distribution was carried out by centrifugation (2000×g, 3 minutes), and the amount of ^3 H contained in 0.7 ml of the supernatant was measured with scintillation counter. […] The obtained value of specific radioactivity was defined as "A", the value of specific radioactivity obtained when an equivalent amount of water was added instead of the aqueous solution of the test peptide was defined as "B", the value of specific radioactivity obtained when an equivalent amount of water was added instead of the sample and the aqueous solution of the test peptide was defined as "C", and the inhibition rate (X) was determined according to the following equation. X(%)=[…]

The subject of assay [2] is KMS-4 cells. The experiment in a line: Cell proliferation-inhibiting activity (BrdU incorporation, Amersham Cell Proliferation Detection Kit). It counts as cell-based. To be noted: Concentration 31 μM, 17 hours with peptide, BrdU-stained cells. As for the experimental part:
The following procedure was carried out with an Amersham Cell Proliferation Detection Kit. First, cells [KMS-4; M. Nanba et al., International Journal of Cancer, 32, 697 (1983)] were suspended in a DMEM culture medium (product of Nissui Seiyaku) containing 10% fetal calf serum to a concentration of 1-2×10^4 cells/ml, and 1 ml of the above-mentioned cell suspension was put into each well of a 24-well plate (product of Corning Co.). The cells were cultured for 2 days in a CO2 incubator (37° C., 5% CO2). Next, the culture medium was exchanged with a DMEM medium containing 10% fetal calf serum, and then the test peptide was added thereto and culturing was carried out for 17 hours. The culture medium was again exchanged with a serum-free DMEM medium, 0.5 ml of a solution of the reagents labelled 5-bromo-2'-deoxyuridine (BrdU) and 5-fluoro-2'-deoxyuridine (FdU) [10:1] diluted 1000-fold with the same medium was added to each well, and cultured for 2 hours. The culture medium was removed, and the cells were immobilized with an acetic acid/ethanol solution. The immobilized cells were stained according to the method for the Amersham Cell Proliferation Kit, and then further stained with a 1% Giemsa solution (product of Merck Co.). The number of cells incorporating BrdU and the total cell count within 1 field of vision of the microscope (approximately 200 cells) were determined, and the proportion (%) of stained cells per field of vision was calculated. Furthermore, the same procedure was repeated 10 times, and the average value thereof was defined as the cell proliferation activity (%). The cell proliferation-inhibiting activity was calculated in the following manner. The proliferation activity without addition of peptide was defined as "A", the proliferation activity with addition of the test peptide was defined as "B", and the cell proliferation inhibition rate (X) was determined according to the following equation. X (%)=[…]

[3] abbreviates: Concentration 120 μM (aqueous solution of test peptide), read-out: Inhibition rate (%).

Peptide text beside a SMILES is read from it. * marks the point of attachment. Benzoyl(2,5-(OH)2) = O=C(c1cc(O)ccc1O)*; Benzoyl(2,3-diOH) = O=C(c1cccc(O)c1O)*; Propanoyl(3-cHex) = O=C(CCC1CCCCC1)*; Cyclopentylacetyl = O=C(CC1CCCC1)*; Octanoyl = CCCCCCCC(=O)*; X1 = O=C(c1ccc(O)cc1O)*; X2 = O=C(c1ccc(=O)oc1)*

We go through twelve compounds from patent publication US5580956A, “Phospholipase C-inhibiting peptides” (priority 1992, dated 1996).

For `CSCC[C@H](NC(=O)[C@H](CCCCN)NC(=O)[C@H](CCCNC(=N)N)NC(=O)[C@H](Cc1ccc(O)cc1)NC(=O)[C@H](CC(C)C)NC(=O)c1ccc(=O)oc1)C(=O)N[C@@H](CCCNC(=N)N)C(=O)N[C@@H](CC(C)C)C(=O)N[C@@H](CCCNC(=N)N)C(=O)N[C@@H](Cc1ccc(O)cc1)C(=O)N1CCC[C@H]1C(=O)N[C@H](C(N)=O)C(C)C` [(I-12), C5 H3 O2 CO-Leu-Tyr-Arg-Lys-Met-Arg-Leu-Arg-Tyr-Pro-Val-NH2] (X2-LYRKMRLRYPV-NH2), the inhibition (usually the share of the control response that was lost under treatment) at 120 µM (stock) in assay [1] (setting [3]) amounted to 40%. Also, the “Cell proliferation inhibition rate (%)” value in assay [2] is recorded as 69%. With `CSCC[C@H](NC(=O)[C@H](CCCCN)NC(=O)[C@H](CCCNC(=N)N)NC(=O)[C@H](Cc1ccc(O)cc1)NC(=O)[C@H](CC(C)C)NC(=O)c1cccc(O)c1O)C(=O)N[C@@H](CCCNC(=N)N)C(=O)N[C@@H](CC(C)C)C(=O)N[C@@H](CCCNC(=N)N)C(=O)N[C@@H](Cc1ccc(O)cc1)C(=O)N1CCC[C@H]1C(=O)N[C@H](C(N)=O)C(C)C` [(I-13), (HO)2 C6 H3 CO-Leu-Tyr-Arg-Lys-Met-Arg-Leu-Arg-Tyr-Pro-Val-NH2] ({Benzoyl(2,3-diOH)}-LYRKMRLRYPV-NH2), in assay [1] (Concentration 610 μM (aqueous solution of test peptide), read-out: Inhibition rate (%)), the inhibition at 610 µM (stock) turned out to be 89%. For the same compound, in assay [2], the “Cell proliferation inhibition rate (%)” value is 69%. On to `CSCC[C@H](NC(=O)[C@H](CCCCN)NC(=O)[C@H](CCCNC(=N)N)NC(=O)[C@H](Cc1ccc(O)cc1)NC(=O)[C@H](CC(C)C)NC(=O)c1ccc(O)cc1O)C(=O)N[C@@H](CCCNC(=N)N)C(=O)N[C@@H](CC(C)C)C(=O)N[C@@H](CCCNC(=N)N)C(=O)N[C@@H](Cc1ccc(O)cc1)C(=O)N1CCC[C@H]1C(=O)N[C@H](C(N)=O)C(C)C` [(I-14), (HO)2 C6 H3 CO-Leu-Tyr-Arg-Lys-Met-Arg-Leu-Arg-Tyr-Pro-Val-NH2] (X1-LYRKMRLRYPV-NH2), for which the inhibition at 120 µM (stock) in assay [1] (setting [3]) was determined as 45%. Further, the “Cell proliferation inhibition rate (%)” value in assay [2] is listed as 59%. Taken in the same sequence, the figures for `CSCC[C@H](NC(=O)[C@H](CCCCN)NC(=O)[C@H](CCCNC(=N)N)NC(=O)[C@H](Cc1ccc(O)cc1)NC(=O)[C@H](CC(C)C)NC(=O)c1cc(O)ccc1O)C(=O)N[C@@H](CCCNC(=N)N)C(=O)N[C@@H](CC(C)C)C(=O)N[C@@H](CCCNC(=N)N)C(=O)N[C@@H](Cc1ccc(O)cc1)C(=O)N1CCC[C@H]1C(=O)N[C@H](C(N)=O)C(C)C` [(I-15), (HO)2 C6 H3 CO-Leu-Tyr-Arg-Lys-Met-Arg-Leu-Arg-Tyr-Pro-Val-NH2] ({Benzoyl(2,5-(OH)2)}-LYRKMRLRYPV-NH2) were 41% and 66%. In the case of `CSCC[C@H](NC(=O)[C@H](CCCCN)NC(=O)[C@H](CCCNC(=N)N)NC(=O)[C@H](Cc1ccc(O)cc1)NC(=O)[C@H](CC(C)C)NC(=O)CCC1CCCCC1)C(=O)N[C@@H](CCCNC(=N)N)C(=O)N[C@@H](CC(C)C)C(=O)N[C@@H](CCCNC(=N)N)C(=O)N[C@@H](Cc1ccc(O)cc1)C(=O)N1CCC[C@H]1C(=O)N[C@H](C(N)=O)C(C)C` [(I-16), C6 H11 CH2 CH2 CO-Leu-Tyr-Arg-Lys-Met-Arg-Leu-Arg-Tyr-Pro-Val-NH2] ({Propanoyl(3-cHex)}-LYRKMRLRYPV-NH2), the inhibition at 120 µM (stock) in assay [1] (setting [3]) is 51%. Also, the “Cell proliferation inhibition rate (%)” value in assay [2] was 84%. For `CSCC[C@H](NC(=O)[C@H](CCCCN)NC(=O)[C@H](CCCNC(=N)N)NC(=O)[C@H](Cc1ccc(O)cc1)NC(=O)[C@H](CC(C)C)NC(=O)CC1CCCC1)C(=O)N[C@@H](CCCNC(=N)N)C(=O)N[C@@H](CC(C)C)C(=O)N[C@@H](CCCNC(=N)N)C(=O)N[C@@H](Cc1ccc(O)cc1)C(=O)N1CCC[C@H]1C(=O)N[C@H](C(N)=O)C(C)C` [(I-17), C5 H9 CH2 CO-Leu-Tyr-Arg-Lys-Met-Arg-Leu-Arg-Tyr-Pro-Val-NH2] (Cyclopentylacetyl-LYRKMRLRYPV-NH2), the inhibition at 120 µM (stock) in assay [1] (setting [3]) turned out to be 53%. Besides, in assay [2], the “Cell proliferation inhibition rate (%)” value was found to be 72%. Taken in the same sequence, the figures for `CCCCCCCC(=O)N[C@@H](CC(C)C)C(=O)N[C@@H](Cc1ccc(O)cc1)C(=O)N[C@@H](CCCNC(=N)N)C(=O)N[C@@H](CCCCN)C(=O)N[C@@H](CCSC)C(=O)N[C@@H](CCCNC(=N)N)C(=O)N[C@@H](CC(C)C)C(=O)N[C@@H](CCCNC(=N)N)C(=O)N[C@@H](Cc1ccc(O)cc1)C(=O)N1CCC[C@H]1C(=O)N[C@H](C(N)=O)C(C)C` [(I-21), CH3 (CH2)6 CO-Leu-Tyr-Arg-Lys-Met-Arg-Leu-Arg-Tyr-Pro-Val-NH2] (Octanoyl-LYRKMRLRYPV-NH2) were 86% and 56%. In the case of “H-Glu-Lys-His-Ala-Leu-Tyr-Arg-Lys-Met -Arg-Leu-Arg-Tyr-Pro-Val-OH (H-EKHALYRKMRLRYPV-OH) [Compound (I-4)]”, in assay [1] (Concentration 120 μM (aqueous solution of test peptide)), the “Inhibition rate (%)” value turned out to be 73%. With “H-Leu-Tyr-Arg-Lys-Met-Arg-Leu-Arg-Tyr-Pro-Val-OH (H-LYRKMRLRYPV-OH) [Compound (I-5)]”, the “Inhibition rate (%)” value in assay [1] (Concentration 125 μM (aqueous solution of test peptide)) was determined as 70%. “H-SLVELVSYYEKHALYRKMRLRYPV-OH [Compound (I-1)]”: the inhibition at 15 µM (stock) in assay [1] (Concentration 15 μM (aqueous solution of test peptide), read-out: Inhibition rate (%)) turned out to be 55%. In addition, the inhibition at 55 µM (stock) in assay [1] (Concentration 55 μM (aqueous solution of test peptide), read-out: Inhibition rate (%)) was determined as 88%. For “H-Ser-Leu-Val-Glu-Leu-Val-Ser-Tyr-Tyr-Glu-Lys-His-Ala-OH (H-SLVELVSYYEKHA-OH) [Compound (I-6)]”, the “Inhibition rate (%)” value in assay [1] (Concentration 105 μM (aqueous solution of test peptide)) is 70%.

In the case of “H-YRKMRLRY-OH [Compound (I-7), H-Tyr-Arg-Lys-Met-Arg-Leu-Arg-Tyr-OH]”, the inhibition at 120 µM (stock) in assay [1] (setting [3]) amounted to 70%.
